In US20230346827A1 (priority 2020, published 2023):

Tested on: rats subjected to sTBI
Test: sTBI rats, LMW-DS 1, 5, 15 mg/kg s.c. 30 min post-TBI: HPLC of brain free amino acids (Example 4)
Type: in vivo, rat
Settings: for HYS concentration in deproteinized brain homogenate / ILE concentration in deproteinized brain homogenate / LEU concentration in deproteinized brain homogenate / LYS concentration in deproteinized brain homogenate / PHE concentration in deproteinized brain homogenate / TAU concentration in deproteinized brain homogenate / TRP concentration in deproteinized brain homogenate / TYR concentration in deproteinized brain homogenate / VAL concentration in deproteinized brain homogenate: rats 7 days post-sTBI, mean ± S.D. of 12 animals
[1] = 15 mg/kg repeated, 7 d post-sTBI
[2] = repeated administration of 15 mg/kg b.w.
[3] = single administration 1 mg/kg b.w.
[4] = single administration 5 mg/kg b.w.
[5] = single administration 15 mg/kg b.w.

Substance: sodium salt of dextran sulfate [LMW-DS]
- CITR [1]: 0.03 ± 0.01 nmol/g w.w.
- GABA [1]: 1.38 ± 0.14 µmol/g w.w.
- GLN [1]: 3.88 ± 0.40 nmol/g w.w.
- GLU [1]: 10.78 ± 0.91 nmol/g w.w.
- GLY [1]: 0.78 ± 0.10 nmol/g w.w.
- L-Cystat [1]: 0.44 ± 0.07 nmol/g w.w.
- MET [1]: 0.05 ± 0.01 nmol/g w.w.
- ORN [1]: 0.02 ± 0.01 nmol/g w.w.
- SAH [1]: 0.04 ± 0.04 nmol/g w.w.
- SER [1]: 0.79 ± 0.13 nmol/g w.w.
- THR [1]: 0.77 ± 0.14 nmol/g w.w.
- ALA (15 mg/kg, 2 d post-sTBI): 0.68 ± 0.07 nmol/g w.w.
- ARG (15 mg/kg, 2 d post-sTBI): 0.16 ± 0.04 nmol/g w.w.
- ASN (15 mg/kg, 2 d post-sTBI): 0.17 ± 0.03 nmol/g w.w.
- ASP (15 mg/kg, 2 d post-sTBI): 3.05 ± 0.42 nmol/g w.w.
- CITR (15 mg/kg, 2 d post-sTBI): 0.01 ± 0.01 nmol/g w.w.
- GABA (15 mg/kg, 2 d post-sTBI): 1.58 ± 0.14 µmol/g w.w.
- GLN (15 mg/kg, 2 d post-sTBI): 4.21 ± 0.51 nmol/g w.w.
- GLU (15 mg/kg, 2 d post-sTBI): 11.79 ± 0.55 nmol/g w.w.
- GLY (15 mg/kg, 2 d post-sTBI): 1.18 ± 0.23 nmol/g w.w.
- HYS (15 mg/kg, 2 d post-sTBI): 0.10 ± 0.01 nmol/g w.w.
- ILE (15 mg/kg, 2 d post-sTBI): 0.06 ± 0.01 nmol/g w.w.
- L-Cystat (15 mg/kg, 2 d post-sTBI): 0.41 ± 0.08 nmol/g w.w.
- LEU (15 mg/kg, 2 d post-sTBI): 0.04 ± 0.01 nmol/g w.w.
- LYS (15 mg/kg, 2 d post-sTBI): 0.32 ± 0.12 nmol/g w.w.
- MET (15 mg/kg, 2 d post-sTBI): 0.03 ± 0.01 nmol/g w.w.
- ORN (15 mg/kg, 2 d post-sTBI): 0.02 ± 0.01 nmol/g w.w.
- PHE (15 mg/kg, 2 d post-sTBI): 0.06 ± 0.01 nmol/g w.w.
- SAH (15 mg/kg, 2 d post-sTBI): 0.06 ± 0.02 nmol/g w.w.
- SER (15 mg/kg, 2 d post-sTBI): 0.76 ± 0.06 nmol/g w.w.
- TAU (15 mg/kg, 2 d post-sTBI): 4.59 ± 0.43 nmol/g w.w.
- THR (15 mg/kg, 2 d post-sTBI): 0.61 ± 0.13 nmol/g w.w.
- TRP (15 mg/kg, 2 d post-sTBI): 0.04 ± 0.01 nmol/g w.w.
- TYR (15 mg/kg, 2 d post-sTBI): 0.17 ± 0.03 nmol/g w.w.
- VAL (15 mg/kg, 2 d post-sTBI): 0.06 ± 0.03 nmol/g w.w.
- ALA (15 mg/kg, 7 d post-sTBI): 0.38 ± 0.04 nmol/g w.w.
- ARG (15 mg/kg, 7 d post-sTBI): 0.14 ± 0.02 nmol/g w.w.
- ASN (15 mg/kg, 7 d post-sTBI): 0.10 ± 0.02 nmol/g w.w.
- ASP (15 mg/kg, 7 d post-sTBI): 2.29 ± 0.37 nmol/g w.w.
- CITR (15 mg/kg, 7 d post-sTBI): 0.03 ± 0.01 nmol/g w.w.
- GABA (15 mg/kg, 7 d post-sTBI): 1.43 ± 0.15 µmol/g w.w.
- GLN (15 mg/kg, 7 d post-sTBI): 3.73 ± 0.38 nmol/g w.w.
- GLU (15 mg/kg, 7 d post-sTBI): 10.25 ± 0.86 nmol/g w.w.
- GLY (15 mg/kg, 7 d post-sTBI): 0.78 ± 0.12 nmol/g w.w.
- L-Cystat (15 mg/kg, 7 d post-sTBI): 0.25 ± 0.04 nmol/g w.w.
- MET (15 mg/kg, 7 d post-sTBI): 0.04 ± 0.01 nmol/g w.w.
- ORN (15 mg/kg, 7 d post-sTBI): 0.01 ± 0.01 nmol/g w.w.
- SAH (15 mg/kg, 7 d post-sTBI): 0.04 ± 0.01 nmol/g w.w.
- SER (15 mg/kg, 7 d post-sTBI): 0.76 ± 0.12 nmol/g w.w.
- THR (15 mg/kg, 7 d post-sTBI): 0.72 ± 0.14 nmol/g w.w.
- HYS concentration in deproteinized brain homogenate [2]: 0.06 ± 0.01 nmol/g w.w.
- ILE concentration in deproteinized brain homogenate [2]: 0.03 ± 0.01 nmol/g w.w.
- LEU concentration in deproteinized brain homogenate [2]: 0.04 ± 0.01 nmol/g w.w.
- LYS concentration in deproteinized brain homogenate [2]: 0.23 ± 0.07 nmol/g w.w.
- PHE concentration in deproteinized brain homogenate [2]: 0.05 ± 0.01 nmol/g w.w.
- TAU concentration in deproteinized brain homogenate [2]: 3.47 ± 0.44 nmol/g w.w.
- TRP concentration in deproteinized brain homogenate [2]: 0.03 ± 0.01 nmol/g w.w.
- TYR concentration in deproteinized brain homogenate [2]: 0.14 ± 0.02 nmol/g w.w.
- VAL concentration in deproteinized brain homogenate [2]: 0.07 ± 0.01 nmol/g w.w.
- HYS concentration in deproteinized brain homogenate [3]: 0.06 ± 0.01 nmol/g w.w.
- ILE concentration in deproteinized brain homogenate [3]: 0.04 ± 0.01 nmol/g w.w.
- LEU concentration in deproteinized brain homogenate [3]: 0.05 ± 0.01 nmol/g w.w.
- LYS concentration in deproteinized brain homogenate [3]: 0.19 ± 0.06 nmol/g w.w.
- PHE concentration in deproteinized brain homogenate [3]: 0.05 ± 0.01 nmol/g w.w.
- TAU concentration in deproteinized brain homogenate [3]: 4.02 ± 0.51 nmol/g w.w.
- TRP concentration in deproteinized brain homogenate [3]: 0.01 ± 0.01 nmol/g w.w.
- TYR concentration in deproteinized brain homogenate [3]: 0.13 ± 0.02 nmol/g w.w.
- VAL concentration in deproteinized brain homogenate [3]: 0.08 ± 0.01 nmol/g w.w.
- HYS concentration in deproteinized brain homogenate [4]: 0.06 ± 0.01 nmol/g w.w.
- ILE concentration in deproteinized brain homogenate [4]: 0.05 ± 0.01 nmol/g w.w.
- LEU concentration in deproteinized brain homogenate [4]: 0.05 ± 0.01 nmol/g w.w.
- LYS concentration in deproteinized brain homogenate [4]: 0.21 ± 0.04 nmol/g w.w.
- PHE concentration in deproteinized brain homogenate [4]: 0.06 ± 0.01 nmol/g w.w.
- TAU concentration in deproteinized brain homogenate [4]: 3.51 ± 0.44 nmol/g w.w.
- TRP concentration in deproteinized brain homogenate [4]: 0.02 ± 0.01 nmol/g w.w.
- TYR concentration in deproteinized brain homogenate [4]: 0.13 ± 0.02 nmol/g w.w.
- VAL concentration in deproteinized brain homogenate [4]: 0.08 ± 0.01 nmol/g w.w.
- HYS concentration in deproteinized brain homogenate [5]: 0.06 ± 0.01 nmol/g w.w.
- ILE concentration in deproteinized brain homogenate [5]: 0.07 ± 0.01 nmol/g w.w.
- LEU concentration in deproteinized brain homogenate [5]: 0.07 ± 0.01 nmol/g w.w.
- LYS concentration in deproteinized brain homogenate [5]: 0.21 ± 0.05 nmol/g w.w.
- PHE concentration in deproteinized brain homogenate [5]: 0.07 ± 0.01 nmol/g w.w.
- TAU concentration in deproteinized brain homogenate [5]: 3.38 ± 0.44 nmol/g w.w.
- TRP concentration in deproteinized brain homogenate [5]: 0.03 ± 0.01 nmol/g w.w.
- TYR concentration in deproteinized brain homogenate [5]: 0.14 ± 0.02 nmol/g w.w.
- VAL concentration in deproteinized brain homogenate [5]: 0.10 ± 0.01 nmol/g w.w.
